# Laboratory results reported in ChEMBL document CHEMBL1201862, “PubChem BioAssay data set” (2004).
# Active and inactive are the calls of the source.
# Experiments:
# [1] = cells; format: functional, cell-based
# [2] = target: Nuclear receptor subfamily 0 group B member 1 (Homo sapiens, UniProt P51843); format: functional, cell-based;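 also: HEK293T cells transfected with SF-1 and DAX-1 plus StAR promoter luciferase reporter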
# [3] = target: Adenosylmethionine-8-amino-7-oxononanoate aminotransferase (Mycobacterium tuberculosis, UniProt P9WQ81); test: Mycobacterium tuberculosis BioA enzyme inhibitor Measured in Biochemical System Using Plate Reader - 2163-02_Inhibitor_Dose_CherryPick_Activity.; format: functional, Mycobacterium tuberculosis UT205
# [4] = target: T1, Beta-lactamase (Pseudomonas aeruginosa, UniProt Q79MP6); test: […] counterscreen for selective VIM-2 inhibitors: dose response biochemical high throughput screening assay to identify inhibitors of IMP-1 metallo-beta-lactamase.
# [5] = target: Beta-lactamase (Salmonella choleraesuis (strain SC-B67), UniProt Q5J463); test: Epi-absorbance-based counterscreen for selective VIM-2 inhibitors: dose response biochemical high throughput screening assay to identify inhibitors of TEM-1 serine-beta-lactamase.
# [6] = target: T1, Beta-lactamase; test: inhibition of IMP-1 beta-lactamase activity – biochemical, epi-absorbance, selectivity assay for VIM-2 inhibitor project, dose response (AID 1920)
# [7] = target: Steroidogenic factor 1 (Homo sapiens, UniProt Q13285); test: Counterscreen for inverse agonists of the liver receptor homolog-1 (LRH-1; NR5A2): Luminescence-based cell-based high throughput dose response assay to identify inverse agonists of the Steroidogenic Factor 1 Nuclear Receptor (SF1; NR5A1).; format: functional
# [8] = nonselective StAR promoter luciferase inhibitors – cell-based, luminescence, luciferase reporter, counter-screen for LRH-1 inverse agonist project, dose response (AID 651969); format: functional
# [9] = target: Nuclear receptor subfamily 5 group A member 2 (Homo sapiens, UniProt O00482); format: functional, cell-based;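 also: HEK293T cells transfected with LRH-1 and a StAR promoter luciferase reporter; potency for inhibitors that lower LRH-1 driven reporter light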
# [10] = blockers of bursicon-stimulated LGR2 cAMP reporter – cell-based, HEK293, CRE-luciferase reporter, cherry pick, set 2, dose response (AID 743343); format: functional;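 also: transfected cells were stimulated with diluted bursicon conditioned medium after compound addition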
# [11] = blockade of melanocortin 4 receptor signaling – cell-based, plate reader, cherry pick, counter-screen for LGR2 antagonist project, dose response (AID 743444); format: functional;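 also: transfected HEK 293 cells stimulated with alpha-MSH peptide; potency of inhibitors of the alpha-MSH evoked signal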
# [12] = target: SWI/SNF-related matrix-associated actin-dependent regulator of chromatin subfamily A member 2 (Homo sapiens, UniProt P51531); test: Luminescence-based cell-based high throughput dose response assay to identify activators of the function of SWI/SNF related, matrix associated, actin dependent regulator of chromatin, subfamily a, member 2 (SMARCA2, BRM).; format: functional
# [13] = Counterscreen for activators of the function of SWI/SNF related, matrix associated, actin dependent regulator of chromatin, subfamily a, member 2 (SMARCA2, BRM): Luminescence-based cell-based high throughput dose response assay to identify non-selective compounds using the VP16 reporter assay.; format: functional
# [14] = Fluorescence-based cell-based high throughput dose response assay for inhibitors of the interaction of nucleotide-binding oligomerization domain containing 2 (NOD2) and the receptor-interacting serine-threonine kinase 2 (RIPK2).; format: functional; settings: Homo sapiens
# [15] = blockers of HIV-1 ZM109 envelope-driven cell-cell fusion – HeLa effector, CEM target cells, luciferase, cherry-pick, dose response (AID 652058); format: functional, cell-based;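 also: luciferase signal from HIV-1 Env mediated cell-cell fusion of effector and target cells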
# [16] = blockers of HIV-1 envelope-mediated cell-cell fusion – cherry-pick, dose response (AID 652057); format: functional, cell-based
# [17] = off-target signal loss in HeLa-CEM21 co-culture – HeLa F-luc CTL cells, cherry-picked, counter-screen for HIV-1 Env fusion inhibitor project, dose response (AID 652040); format: functional, cell-based;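 also: potency for signal decrease marking cytotoxic or nonspecific inhibition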
# [18] = HIV-1 AD8 envelope cell-cell fusion blockers – cherry-pick, dose response (AID 652062); format: functional, cell-based;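 also: luciferase signal from cell-cell fusion driven by HIV-1 clade B AD8 Env; potency is for inhibitors of fusion seen as a drop in luminescence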
# [19] = Counterscreen for inhibitors of Trypanosoma brucei methionyl tRNA synthetase (MetRS): Luminescence-based cell-based high throughput dose response assay to identify compounds that are cytotoxic to Jurkat human T lymphocyte cells.; format: functional
# [20] = target: T2, Methionyl-tRNA synthetase, putative (Trypanosoma brucei brucei, UniProt Q38C91); format: functional, Trypanosoma brucei brucei strain 927/4 GUTat10.1
# T2 sequence (Q38C91 whole entry): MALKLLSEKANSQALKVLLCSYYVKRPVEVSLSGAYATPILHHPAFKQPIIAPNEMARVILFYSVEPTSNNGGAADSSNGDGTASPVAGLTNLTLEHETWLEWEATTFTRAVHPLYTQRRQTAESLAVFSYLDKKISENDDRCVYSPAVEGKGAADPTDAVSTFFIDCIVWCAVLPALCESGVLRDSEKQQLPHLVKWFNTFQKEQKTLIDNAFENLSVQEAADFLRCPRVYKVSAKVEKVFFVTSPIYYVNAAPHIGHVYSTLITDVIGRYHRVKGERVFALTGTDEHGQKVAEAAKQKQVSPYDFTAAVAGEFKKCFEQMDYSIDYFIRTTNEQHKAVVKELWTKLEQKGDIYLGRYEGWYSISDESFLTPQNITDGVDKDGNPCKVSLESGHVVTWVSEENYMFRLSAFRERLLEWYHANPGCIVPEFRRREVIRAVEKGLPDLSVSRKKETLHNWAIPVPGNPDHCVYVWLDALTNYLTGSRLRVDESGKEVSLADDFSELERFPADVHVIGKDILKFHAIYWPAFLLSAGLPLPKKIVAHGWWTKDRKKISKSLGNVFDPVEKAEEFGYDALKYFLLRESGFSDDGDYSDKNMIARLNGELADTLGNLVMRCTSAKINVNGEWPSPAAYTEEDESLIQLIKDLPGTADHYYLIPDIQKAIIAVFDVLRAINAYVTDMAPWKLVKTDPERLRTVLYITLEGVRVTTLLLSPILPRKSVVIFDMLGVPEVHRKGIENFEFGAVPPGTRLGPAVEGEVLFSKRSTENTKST
# [21] = target: T2, Methionyl-tRNA synthetase, putative; format: functional, Trypanosoma brucei brucei strain 927/4 GUTat10.1; remark: listed apart in the source
# Adenosylmethionine-8-amino-7-oxononanoate aminotransferase, sequence (P9WQ81 whole entry): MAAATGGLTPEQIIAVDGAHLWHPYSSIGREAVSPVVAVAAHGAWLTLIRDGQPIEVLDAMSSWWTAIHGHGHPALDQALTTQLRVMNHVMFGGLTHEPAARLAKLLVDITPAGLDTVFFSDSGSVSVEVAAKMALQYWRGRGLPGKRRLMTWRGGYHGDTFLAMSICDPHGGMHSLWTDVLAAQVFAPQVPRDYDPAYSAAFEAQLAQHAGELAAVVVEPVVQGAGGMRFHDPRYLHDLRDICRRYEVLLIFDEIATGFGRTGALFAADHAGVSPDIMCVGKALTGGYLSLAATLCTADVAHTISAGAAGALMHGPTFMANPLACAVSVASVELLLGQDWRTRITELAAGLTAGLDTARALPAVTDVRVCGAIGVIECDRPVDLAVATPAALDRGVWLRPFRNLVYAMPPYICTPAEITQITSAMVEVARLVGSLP
# T1 sequence (Q79MP6 whole entry): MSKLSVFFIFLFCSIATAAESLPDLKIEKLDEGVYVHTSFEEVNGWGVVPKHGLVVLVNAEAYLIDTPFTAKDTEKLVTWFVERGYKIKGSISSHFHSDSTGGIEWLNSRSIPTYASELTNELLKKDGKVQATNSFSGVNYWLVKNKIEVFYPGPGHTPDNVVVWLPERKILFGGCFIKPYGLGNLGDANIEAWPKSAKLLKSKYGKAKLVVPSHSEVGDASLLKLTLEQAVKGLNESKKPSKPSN
# Nuclear receptor subfamily 0 group B member 1, sequence (P51843 whole entry): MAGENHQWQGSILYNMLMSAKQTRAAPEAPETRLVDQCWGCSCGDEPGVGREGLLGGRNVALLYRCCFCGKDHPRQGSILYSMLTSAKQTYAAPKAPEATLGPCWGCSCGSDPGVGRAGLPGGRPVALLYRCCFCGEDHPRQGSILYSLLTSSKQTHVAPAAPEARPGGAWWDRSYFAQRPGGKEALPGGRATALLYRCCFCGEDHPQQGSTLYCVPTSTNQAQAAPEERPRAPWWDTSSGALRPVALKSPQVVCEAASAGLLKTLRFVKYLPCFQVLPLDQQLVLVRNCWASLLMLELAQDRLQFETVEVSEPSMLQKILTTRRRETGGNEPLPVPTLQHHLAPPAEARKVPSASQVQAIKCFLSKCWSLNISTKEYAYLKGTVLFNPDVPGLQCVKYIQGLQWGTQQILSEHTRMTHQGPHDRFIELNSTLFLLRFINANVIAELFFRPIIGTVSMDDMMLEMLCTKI
# Beta-lactamase (Salmonella choleraesuis (strain SC-B67), UniProt Q5J463), sequence (Q5J463 whole entry): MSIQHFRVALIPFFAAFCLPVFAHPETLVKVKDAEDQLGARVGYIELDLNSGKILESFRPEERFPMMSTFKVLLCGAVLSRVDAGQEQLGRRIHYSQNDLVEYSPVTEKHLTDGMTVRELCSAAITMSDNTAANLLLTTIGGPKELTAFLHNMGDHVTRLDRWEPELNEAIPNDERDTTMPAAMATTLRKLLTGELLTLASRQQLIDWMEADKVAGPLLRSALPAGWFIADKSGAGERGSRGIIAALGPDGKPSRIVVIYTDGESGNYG
# Nuclear receptor subfamily 5 group A member 2, sequence (O00482 whole entry): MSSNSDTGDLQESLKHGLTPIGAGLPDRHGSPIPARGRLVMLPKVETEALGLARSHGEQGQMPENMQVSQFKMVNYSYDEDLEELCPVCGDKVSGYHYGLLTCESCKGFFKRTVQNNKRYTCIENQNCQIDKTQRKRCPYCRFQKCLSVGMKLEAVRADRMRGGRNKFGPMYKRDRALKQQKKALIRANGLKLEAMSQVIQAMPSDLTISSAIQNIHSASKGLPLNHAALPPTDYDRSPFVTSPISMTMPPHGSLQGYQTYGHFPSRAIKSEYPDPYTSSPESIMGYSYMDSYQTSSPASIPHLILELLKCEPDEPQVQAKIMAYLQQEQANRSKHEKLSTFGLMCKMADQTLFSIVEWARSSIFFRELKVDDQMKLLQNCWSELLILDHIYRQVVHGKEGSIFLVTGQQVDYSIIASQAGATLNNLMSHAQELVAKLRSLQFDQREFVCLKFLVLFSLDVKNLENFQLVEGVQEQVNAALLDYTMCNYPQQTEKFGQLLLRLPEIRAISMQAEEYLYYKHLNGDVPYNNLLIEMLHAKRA
# Steroidogenic factor 1, sequence (Q13285 whole entry): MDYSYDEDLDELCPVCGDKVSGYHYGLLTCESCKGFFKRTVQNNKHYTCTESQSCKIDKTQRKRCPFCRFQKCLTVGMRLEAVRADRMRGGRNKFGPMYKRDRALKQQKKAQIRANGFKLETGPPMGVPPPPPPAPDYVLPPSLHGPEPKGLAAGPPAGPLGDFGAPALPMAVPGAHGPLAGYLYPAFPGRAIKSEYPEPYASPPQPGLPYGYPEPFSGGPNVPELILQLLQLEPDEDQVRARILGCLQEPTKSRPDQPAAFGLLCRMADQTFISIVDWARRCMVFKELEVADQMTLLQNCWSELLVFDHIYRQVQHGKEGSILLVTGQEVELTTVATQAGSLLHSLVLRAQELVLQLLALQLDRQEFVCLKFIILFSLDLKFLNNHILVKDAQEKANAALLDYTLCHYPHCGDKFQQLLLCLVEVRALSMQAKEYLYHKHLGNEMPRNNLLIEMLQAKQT
# SWI/SNF-related matrix-associated actin-dependent regulator of chromatin subfamily A member 2, sequence (P51531 whole entry): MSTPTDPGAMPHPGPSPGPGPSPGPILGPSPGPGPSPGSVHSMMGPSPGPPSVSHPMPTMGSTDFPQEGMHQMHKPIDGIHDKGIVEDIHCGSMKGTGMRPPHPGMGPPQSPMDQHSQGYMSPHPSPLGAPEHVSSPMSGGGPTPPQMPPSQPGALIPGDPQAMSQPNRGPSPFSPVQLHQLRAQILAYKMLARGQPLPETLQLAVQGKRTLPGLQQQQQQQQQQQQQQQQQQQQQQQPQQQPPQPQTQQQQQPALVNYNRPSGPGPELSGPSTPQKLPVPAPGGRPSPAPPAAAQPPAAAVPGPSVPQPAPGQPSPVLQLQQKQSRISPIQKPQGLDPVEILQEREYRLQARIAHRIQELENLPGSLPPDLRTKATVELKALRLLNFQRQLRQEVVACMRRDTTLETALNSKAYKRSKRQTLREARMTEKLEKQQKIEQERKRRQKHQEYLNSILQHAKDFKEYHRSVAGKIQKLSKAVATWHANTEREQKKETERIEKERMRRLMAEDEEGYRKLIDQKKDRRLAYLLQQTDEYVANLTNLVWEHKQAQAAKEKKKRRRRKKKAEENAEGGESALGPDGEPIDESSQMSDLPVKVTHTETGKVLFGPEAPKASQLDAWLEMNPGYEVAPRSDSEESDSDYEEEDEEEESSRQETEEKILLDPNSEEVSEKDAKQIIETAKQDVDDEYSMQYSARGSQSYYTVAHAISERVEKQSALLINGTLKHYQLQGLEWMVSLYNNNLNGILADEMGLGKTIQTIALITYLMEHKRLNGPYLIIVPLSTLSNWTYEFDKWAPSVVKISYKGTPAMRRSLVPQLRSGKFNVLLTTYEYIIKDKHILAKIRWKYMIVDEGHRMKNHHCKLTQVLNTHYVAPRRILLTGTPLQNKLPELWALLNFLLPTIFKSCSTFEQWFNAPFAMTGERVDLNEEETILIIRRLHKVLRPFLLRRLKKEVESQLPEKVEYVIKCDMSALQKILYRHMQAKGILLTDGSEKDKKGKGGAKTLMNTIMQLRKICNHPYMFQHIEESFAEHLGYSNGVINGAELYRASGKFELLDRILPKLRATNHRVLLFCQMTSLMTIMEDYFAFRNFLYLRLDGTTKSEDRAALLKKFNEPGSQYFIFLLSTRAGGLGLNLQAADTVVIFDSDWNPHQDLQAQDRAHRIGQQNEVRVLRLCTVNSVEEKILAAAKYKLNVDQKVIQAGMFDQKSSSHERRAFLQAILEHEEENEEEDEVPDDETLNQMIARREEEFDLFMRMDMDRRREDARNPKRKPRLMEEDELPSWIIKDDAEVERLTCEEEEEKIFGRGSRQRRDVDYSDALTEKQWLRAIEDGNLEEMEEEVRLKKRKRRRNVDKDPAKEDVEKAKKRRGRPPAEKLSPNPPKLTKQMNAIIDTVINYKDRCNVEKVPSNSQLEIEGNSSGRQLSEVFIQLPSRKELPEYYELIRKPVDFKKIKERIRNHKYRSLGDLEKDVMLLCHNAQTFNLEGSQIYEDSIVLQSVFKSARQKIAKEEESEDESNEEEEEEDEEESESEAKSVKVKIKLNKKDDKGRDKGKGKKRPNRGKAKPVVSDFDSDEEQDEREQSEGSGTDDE
smiles,measurement,setting,value
O=C(Nc1ccc(Cl)cn1)c1ccc2nccnc2c1,IC50,[1],> 67.6 µM (inactive)
same,IC50,[2],> 67.6 µM (inactive)
COc1cc(-c2nnc(S)n2Cc2ccccc2)cc(OC)c1OC,AC50,[3],2.51 µM (active)
COc1cc2c(cc1OC)C(C)N(C(=O)c1nccnc1C(=O)O)CC2 (configuration not stated),IC50,[4],> 59.6 µM (inactive)
same,IC50,[5],> 59.6 µM (inactive)
same,IC50,[6],> 59.6 µM (inactive)
Cc1cccc(NC(=O)COC(=O)Cc2cccs2)c1C,IC50,[7],7.35 µM (active)
same,IC50,[8],35.9 µM (inactive)
same,IC50,[9],12.8 µM (inactive)
O=C(NCCc1ccccc1)c1ccc2c(c1)OCO2,AC50,[10],2.31 µM (active)
same,AC50,[11],2.88 µM (active)
CN(CC(=O)Nc1ccccc1Cl)C(=O)COC(=O)c1nc(Cl)c(Cl)c(Cl)c1Cl,EC50,[12],> 91.2 µM (inactive)
same,EC50,[13],> 91.2 µM (inactive)
same,IC50,[14],8.62 µM (active)
COc1cccc(Cl)c1NC(=O)N1CCc2c([nH]c3ccccc23)C1C(F)(F)F (configuration not stated),AC50,[15],15 µM (active)
same,AC50,[16],4.56 µM (active)
same,AC50,[17],2.65 µM (active)
same,AC50,[18],36.8 µM (active)
COc1ccc(C(=O)Nc2cccnc2)cc1OC,AC50,[3],8.29 µM (active)
CN(C)S(=O)(=O)c1cccc(NC(=O)Cc2ccc(Cl)cc2)c1,IC50,[19],83.3 µM (inactive)
same,IC50,[20],32.3 µM (inactive)
same,IC50,[21],72.3 µM (inactive)
